This data set relates to EpiDerm™ Skin Model. In words: Skin Irritancy Potential Test via in vitro skin equivalents (IL-1α release). The note with it: Table 12; vs C30. In kind it is cell-based, human. The text has this:
The EpiDerm™ Skin Model provided by MatTek Corporation was used in this study. The target cells are epithelial, derived from human skin. The test materials are applied directly to the culture surface, at air interface, so that undiluted and/or end use dilutions can be tested directly.
The experimental design used in this study consisted of a definitive assay to determine the release of one cytokine. Where tissue viability is not decreased by 50% as compared to the negative control tissue (as measured by MTT reduction), the inflammatory potential is then measured by the synthesis/release of the cytokine IL-1α.
In the treatment phase six skin equivalents are used for each diluted test product, individual results are averaged to provide overall response. 100 μl is applied to each equivalent for 1 hour of diluted product (10% dilution) exposure followed by 5 rinses of Ca, Mg Free PBS solution. Each Tissue is placed in a 6 well tray with assay medium for each rinse and returned to incubation for 24 hours. Following incubation tissues are assessed for cytokine responses of IL-1α.

In the case of Polyglycerol-10-Myristate [PG-10-M], the “effect of PGE on mildness of the surfactant system” value is recorded as “improve the mildness”.
Then Polyglycerol-10-Oleate [PG-10-O], with “improve the mildness”.

For the origin of these results see US8338348B2, “Skin cleansing compositions with polyglycerol esters and hydrophobically modified polymers” (Johnson & Johnson Consumer Companies, Inc., priority 2010, dated 2012).
